Experiment [1] concerns basic aa-specific PCs. Briefly: Inhibition of PC processing of overexpressed human PCSK9 in HEK293 cells (pulse-labelling, V5 immunoprecipitation). The following applies: co-expression with PCSK9 in HEK293 cells; FIG. 7. The experiment is classed as cell-based. Here is the method:
Twenty four hours following the co-transfection of PCSK9 with a PC or with an empty vector control (the pIRES-2 vector from Invitrogen), the cells were labeled with [^35S] [Met+Cys] for 4 h (P4h). The cell lysates (Cells) and media were immunoprecipitated with a V5-mAb and the immunoprecipitates resolved by SDS-PAGE, as described (Seidah et al., 2003). sFurin represents the soluble form of furin lacking the transmembrane-cytosolic tail (Decroly et al., 1996). The stars point to lanes where either processing occurred (with Furin and PC5A) or was inhibited (α1-PDX). From now on, N2 is defined herein as the N-terminal 218 amino acid truncated PCSK9 product (PCSK9-ΔN218). The pIRES lanes represent the empty vector pIRES-2 either alone or co-transfected with PCSK9 (as indicated at the bottom of the panel) as controls;
Was next tested the hypothesis that cleavage at Arg218 is performed by one or more basic amino acid PCs. Accordingly, wild type PCSK9 was co-expressed with all the convertases as well as with β-secretase BACE1 in HEK293 cells. Cells transiently transfected with vectors expressing hPCSK9-V5 and/or the different convertases (as indicated at the top of lanes) were pulse-labeled with ^35S-(Met+Cys) for 4 h and cell extracts (Cells) and media (Media) were immunoprecipitated with a V5 antibody and the precipitates were resolved by SDS/PAGE. […]

Experiment [2] concerns LDLR. Nature of the experiment: Western blot of endogenous LDLR level in HuH7 cells transiently transfected with PCSK9 constructs. The experiment is classed as cell-based, human. To be noted: compared to pIRES empty vector, FIG. 10. The text has this:
Cells expressed either full length PCSK9 (FL-PCSK9), namely wild type sequence (WT), mutated R218S, RRRREL (SEQ ID NO: 5) or active site H226A; a truncated PCSK9 construct with the Cys/His rich domain (signal peptide fused to amino acid 455-692 of PCSK9 and ending with a V5 tag) (CHRD) or the empty vector control (pIRES-2). The levels of β-actin was used as control, as well as the level of PCSK9 intracellular proteins produced (detected by a V5-mAb);
Accordingly, the activity on the degradation of LDLR of wild type PCSK9, its R218S mutant, the RRRR218EL (SEQ ID NO: 5) variant, the active site mutant H226A and the Cys/His-rich domain of PCSK9 (aa 454-692 CHRD) was analyzed by Western blots in HuH7 cells (Benjannet et al., 2004) (FIG. 10).
On the technique in general: A western blot detects proteins with antibodies after separation by electrophoresis.

Experiment [3] has as its system ApoER2. Nature of the experiment: Western blot of overexpressed ApoER2 in cells co-transfected with PCSK9 constructs. The following applies: for degradation of ApoER2: overexpressed receptor, transient co-transfection, FIGS. 13 and 14. Format: cell-based. The text has this:
(§1) The triangle indicates the position in the gel of respectively ApoER2 (first panel), VLDLR (second panel) and LDLR (third panel). […] The PCSK9 Y38F is a mutant where the Tyr-sulfation of the prosegment is eliminated. The intracellular levels of PCSK9 (detected by a specific in-house polyclonal antibody made in rabbits against human PCSK9) are shown in the corresponding cell lysates in the lower panels;
The intracellular levels of PCSK9 (detected by a specific in house antibody against human PCSK9) are shown in the bottom panels;

Experiment [4] has as its system VLDLR. Briefly: Western blot of overexpressed VLDLR in CHOK1 cells co-transfected with PCSK9 constructs. To be noted: overexpressed receptor, transient co-transfection; FIG. 13. Format: cell-based.
Text: as §1

For experiment [5], the system named is LDLR. Nature of the experiment: Western blot of LDLR level in HEK293 cells co-transfected with LDLR and PCSK9 or PCSK9-TM-CT chimera. The experiment is classed as cell-based, human. The following applies: HEK293 cells co-transfected with LDLR; compared to wild type PCSK9; FIG. 4. Here is the method:
Note that NH4Cl allows the rescue from degradation of an intermediate immunoreactive ˜105 kDa form of LDLR that is likely found in endosomes. The pIRES lanes represent the empty vector pIRES-2 either alone or co-transfected with LDLR (as indicated at the bottom of the panel) as controls;
HEK293 cells were transiently transfected with different PCSK9-chimera constructions (Benjannet et al., 2004). […] Cells were either treated (+) or not (−) with 5 mM NH4Cl for 24 h. Note that NH4Cl allows the rescue from degradation of an intermediate immunoreactive ˜105 kDa form of LDLR that is likely found in endosomes. The pIRES lanes represent the empty vector pIRES-2 either alone or co-transfected with LDLR (as indicated at the bottom of the panel) as controls.

In experiment [6] the test system is LDLR. Briefly: Western blot of overexpressed LDLR in CHOK1 cells co-transfected with PCSK9 constructs. To be noted: overexpressed receptor, transient co-transfection; FIG. 13. The experiment is classed as cell-based.
Text: as §1

In experiment [7] the target is T1, Furin (Homo sapiens, UniProt P09958).
T1 construct: endogenous in cells; host or cells: HEK293
T1 sequence (P09958 108-794): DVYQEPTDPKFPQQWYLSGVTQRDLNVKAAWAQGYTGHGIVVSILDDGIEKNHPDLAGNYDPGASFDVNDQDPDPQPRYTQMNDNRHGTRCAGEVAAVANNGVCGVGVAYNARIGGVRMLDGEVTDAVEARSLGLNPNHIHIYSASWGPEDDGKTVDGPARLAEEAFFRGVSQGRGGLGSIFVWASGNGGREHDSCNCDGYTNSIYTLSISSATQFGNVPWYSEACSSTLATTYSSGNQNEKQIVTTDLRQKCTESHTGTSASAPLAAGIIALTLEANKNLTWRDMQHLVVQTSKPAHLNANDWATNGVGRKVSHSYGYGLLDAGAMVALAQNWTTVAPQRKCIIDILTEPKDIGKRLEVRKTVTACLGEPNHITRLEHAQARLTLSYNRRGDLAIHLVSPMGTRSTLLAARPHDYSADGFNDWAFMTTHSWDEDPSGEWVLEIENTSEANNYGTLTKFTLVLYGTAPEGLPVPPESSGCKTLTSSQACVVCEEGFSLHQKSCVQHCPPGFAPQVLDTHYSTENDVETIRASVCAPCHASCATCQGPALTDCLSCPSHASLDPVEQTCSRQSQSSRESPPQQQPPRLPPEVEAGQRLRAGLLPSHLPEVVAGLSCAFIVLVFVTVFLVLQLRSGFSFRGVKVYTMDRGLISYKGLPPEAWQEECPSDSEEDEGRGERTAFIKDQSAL
Briefly: Cleavability of PCSK9 mutants by Furin in HEK293 cells (pulse-labelling, V5 immunoprecipitation). To be noted: for processing by co-expressed Furin: co-transfection with Furin, FIG. 8; for processing at Arg218 by endogenous Furin: 5 h pulse-labelling, FIG. 9. Format: cell-based. Here is the method: Twenty four hours following the co-transfection of the PCSK9 natural mutants and each PC or with an empty vector control (pIRES). The cells were labeled with [^35S] [Met+Cys] for 5 h (P5h) and the cell lysates (Cells) and media analyzed as in FIG. 7. The stars point to lanes where either processing occurred (Furin and PC5A) or was inhibited by the presence of the mutation (R^218S with furin). Cleavage sites GTRFHS^218↓QA (SEQ ID NO: 17); GTRLHR^218↓QA (SEQ ID NO: 18);
[Met+Cys] as described in FIG. 7. The star emphasizes the effectiveness of the RRRR218EL (SEQ ID NO: […]) mutant to allow the complete processing of PCSK9 into the PCSK9-ΔN218 form by endogenous Furin. PCSK9 amino acid sequence in the vicinity of position 218 RFHR218QA (SEQ ID NO: 4) (WT); RFHR218EA (SEQ ID NO: 6) (Q219E); RFHR218EL (SEQ ID NO: 7) (QA219,220EL); RRRR218EL (SEQ ID NO: 5);
Was next tested the hypothesis that cleavage at Arg218 is performed by one or more basic amino acid PCs. Accordingly, wild type PCSK9 was co-expressed with all the convertases as well as with β-secretase BACE1 in HEK293 cells. Cells transiently transfected with vectors expressing hPCSK9-V5 and/or the different convertases (as indicated at the top of lanes) were pulse-labeled with ^35S-(Met+Cys) for 4 h and cell extracts (Cells) and media (Media) were immunoprecipitated with a V5 antibody and the precipitates were resolved by SDS/PAGE. […] The N-terminally truncated N2 product is thus referred to as PCSK9-ΔN218 (SEQ ID NO: 32) (PCSK9 lacking the first 218 amino acids; FIG. 5). […] The R218S mutation abrogates the Furin/PC5A cleavage at the sequence RFHR218.
Based on the crystal structure of Furin (Henrich et al., 2003) and the analysis of its many substrates (Seidah and Chretien, 1999), the best substrates of Furin would have the motif RX(R/K)R↓(E/D)L (SEQ ID NO: 115). This led the applicants to produce mutants of PCSK9 that should greatly enhance the ability of Furin to process this molecule. […] Notice the almost absence of prosegment co-immunoprecipitating with the PCSK9-ΔN218 form produced (FIG. 9), which would be predicted since such cleavage would remove the PCSK9 segment 153-218 (SEQ ID NO: 31), which contains the active site Asp^186.

Experiment [8] deals with VLDLR. Briefly: Transgenic mice overexpressing PCSK9-V5 in hepatocytes: VLDLR in skeletal muscle, circulating LDL-cholesterol. Format: in vivo, mouse. Here is the method:
The transgenic protein was tagged with a V5 at its C-terminus to differentiate it from the endogenous one. […] This is the first evidence that circulating PCSK9 can enhance the degradation of VLDLR in vivo and at distant sites away from those of its synthesis.
Immunohistochemistry of VLDLR (red) in skeletal mouse muscles of control Pcsk9+/+, Pcsk9−/− (Pcsk9 knockout) and transgenic mice (Tg-hPcsk9-V5). The nuclei were stained using TO-PRO-3 (blue; invitrogen). scale: […]; and
A transgenic mice specifically overexpressing PCSK9 in hepatocytes was generated. The transgene was under the control of the ApoE promoter and enhancer regulation. […] The transgenic protein was tagged with a V5 at its c-terminus to differentiate it from the endogenous one. […] Immunofluorescence and Confocal Microscopy analyses of the skeletal mouse muscles were performed using a rabbit polyclonal Ab:VLDLR (a74; 1:200). Immunofluorescence analyses were performed with a Zeiss™ LSM-510 confocal microscope. Confocal immunofluorescence microscopy was performed with a Nikon Eclipse™ TE2000-U laser-scanning microscope with 408, 488, and 543-nm laser lines. Images were processed with Adobe Photoshop™ CS2, version 9.0 (Adobe Systems). […] This is the first evidence that circulating PCSK9 can enhance the degradation of VLDLR in vivo. The decrease level of VLDLR in the transgenic mice overexpressing PCSK9 in the liver was also confirm by immunodetection of PCSK9 in extracts of skeletal muscle (see FIG. 21).

This is an account of results in patent US8338568B2, “Chimeric PCSK9 proteins, cells comprising same, and assays using same” (Adaerata, Limited Partnership, priority 2006, dated 2012).

With “α1-PDX: modified serpin which inhibits most of the basic aa-specific PCs”, the “inhibition of processing of PCSK9 into PCSK9-ΔN218” value in experiment [1] is on record as “completely inhibits such processing into PCSK9-ΔN218”. For “H226A: active site mutant of PCSK9, an inactive enzyme form that remains as zymogen in the ER [reference compound]”, in experiment [2], the “activity in enhancing the degradation of the LDLR” value (“activity” below) is “inactive”. With “wild type PCSK9: human full-length PCSK9 (1-692), SEQ ID NO: 21”, the “degradation of ApoER2” value in experiment [3] was “degraded”. Also, in experiment [2], the “activity” value is recorded as “active in enhancing the degradation of the LDLR”. Moreover, the “degradation of VLDLR” value in experiment [4] was “degraded”. Turning to “PCSK9-ΔN218: C-terminal fragment of the furin/PC5-cleaved PCSK9 (219-692), SEQ ID NO: 32”, in experiment [2], the “activity” value is “inactive form of PCSK9”.

In the case of “PCSK9-[TM-CT of LDLR]: chimera of full-length human PCSK9 (1-692) indirectly fused to the transmembrane and cytosolic domains of LDLR, SEQ ID NO: 20”, in experiment [5], the “degradation of LDLR” value was “much more effective than the wild type (WT) PCSK9”.

Consider “PCSK9-[TM-CT of Lamp1]: chimera of full-length human PCSK9 (1-692) fused to the transmembrane and cytosolic domains of Lamp1, SEQ ID NO: 24”, for which the “degradation of LDLR” value in experiment [5] is reported as “more powerful chimera to enhance the degradation of the LDLR”; in experiment [6], “highest efficacy of degradation”. For the same molecule, in experiment [3] (CHOK1, Neuro2A, HuH7 and HEKL293 cells, FIG. 14), the “level of ApoER2” value is given as “significantly decreased the level of ApoER2 in all cells tested”. Also, in experiment [3], the “degradation of ApoER2” value is on record as “highest efficacy of degradation”. Besides, the “degradation of VLDLR” value in experiment [4] is “highest efficacy of degradation”.

On to “R218S: natural PCSK9 mutant Arg218-to-Ser, hypercholesterolemia-associated, Furin/PC5A-resistant”, for which, in experiment [7], the “processing by co-expressed Furin” value was “can no longer process”. In addition, the “activity” value in experiment [2] is “active in enhancing the degradation of the LDLR”. Turning to “RFHR218↓EL: PCSK9 mutant with motif RFHR218EL (SEQ ID NO: 7)”, in experiment [7], the “processing at Arg218 by endogenous Furin” value is reported as “intermediate Furin-cleavability”. Still for that read-out and setting: as for “RFHR218↓EA: PCSK9 mutant with motif RFHR218EA (SEQ ID NO: 6)”, the entry is “intermediate Furin-cleavability”. Turning to “PCSK9-V5: transgenic PCSK9 tagged with V5 at its C-terminus, overexpressed in mouse hepatocytes”, the “circulating LDL-Cholesterol” value in experiment [8] (transgenic mice overexpressing PCSK9 in hepatocytes) is recorded as “quite elevated”. In addition, the “level of VLDLR in skeletal muscle” value in experiment [8] (transgenic mice versus control littermates, immunofluorescence, FIG. 21) is “dramatically decreased”. The “decrease of VLDLR level in muscle” value in experiment [8] (transgenic mice versus non-transgenic control littermates) was “at least 3 fold”. “PCSK9-[TM-CT of ACE2]: chimera of full-length human PCSK9 (1-692) fused to the transmembrane and cytosolic domains of ACE2, SEQ ID NO: 27”: the “degradation of LDLR” value in experiment [5] was “much more effective than the wild type (WT) PCSK9”. “RRRR^218EL: PCSK9 variant with wild type RFHR218QA replaced by optimal Furin-recognition sequence RRRR218EL (SEQ ID NO: 5)”: in experiment [7], the “processing at Arg218 by endogenous Furin” value is recorded as “completely process”. Besides, the “activity” value in experiment [2] is “inactive”. Regarding “F216L: natural PCSK9 mutant Phe216-to-Leu, hypercholesterolemia-associated”, the “processing by co-expressed Furin” value in experiment [7] is “cleaves to a lesser extent”.

B1: CHRD: truncated PCSK9 construct: signal peptide fused to the Cys/His rich domain (amino acid 455-692) with V5 tag (protein)
chain: LFCRTVWSAHSGPTRMATAVARCAPDEELLSCSSFSRSGKRRGERMEAQGGKLVCRAHNAFGGEGVYAIARCCLLPQANCSVHTAPPAEASMGTRVHCHQQGHVLTGCSSHWEVEDLGTHKPPVLRPRGQPNQCVGHREASIHASCCHAPGLECKVKEHGIPAPQEQVTVACEEGWTLTGCSALPGTSHVLGAYAVDNTCVVRSRDVSTTGSTSEGAVTAVAICCRSRHLAQASQELQ
modifications: left off: small tags and cut ends
notes: truncated PCSK9 construct: signal peptide fused to the Cys/His rich domain (amino acid 455-692) with V5 tag
B1: the “activity” value in experiment [2] is “inactive”.
